{"source": "paper PMC12383145", "about": "“Fluorescent Peptides Internalize HeLa Cells and Kill Multidrug-Resistant Clinical Bacterial Isolates” (Antibiotics, 2025)", "assay_type_in_all_cases": "cell-based", "key": {"Hemolysis assay": {"experiment": "Hemolysis assay", "method": "Whole blood was collected into EDTA tubes and centrifuged at 2500 rpm for 10 min. The plasma and buffy coat were removed, and the erythrocytes were washed three times with 0.9% saline to yield a 4% cell suspension. In 96-well plates, 100 µL of peptide dilutions (6.25–200 µg/mL) were prepared in triplicate, and 100 µL of the erythrocyte suspension was added (final hematocrit 2%). Plates were incubated at 37 °C for 2 h, and then centrifuged again at 2500 rpm for 10 min. A 100 µL aliquot of the supernatant was transferred to a fresh plate, and absorbance was measured at 450 nm. Saline and 1× Triton X-100 served as the negative and positive controls, respectively. Hemolysis (%) was calculated as follows: %hemolysis=treatment absorbance−saline absorbance/1×triton absorbance−saline absorbance"}, "[1]": {"system": "E. faecalis clinical isolate 213", "settings": "E. faecalis clinical isolate 213", "method": "(§1) E. coli isolates 1004 (susceptible), 129797 (resistant), and 301755 (MDR) were selected for evaluation. Isolate 1004 was sensitive to all antibiotics tested. […] These findings identify it as a multidrug-resistant (MDR) strain and an extended-spectrum beta-lactamase (ESBL)-producing bacterium. For S. aureus, isolates 109095, 117719, and 124653 were evaluated. All three were resistant to penicillin, indicating beta-lactamase production mediated by the blaZ gene. Studies have shown that up to 90% of S. aureus isolates worldwide are penicillin-resistant, which implies that this antibiotic is ineffective in infections caused by this pathogen. […] Isolate 124653 was resistant to penicillin, tetracycline, and erythromycin, with the latter belonging to the group of macrolides, antibiotics that inhibit protein synthesis through interaction with the 50S […] subunit. For E. faecalis three isolates were selected: strains 213 (sensitive to all the antibiotics tested), strain 82 (resistant to streptomycin), and strain 179 (resistant to gentamicin). These clinical isolates were selected to assess the antimicrobial activity of the peptide RWQWRWQWR and its analogues conjugated to fluorescent molecules in strains against strains with susceptibility profiles.\n(§2) The analysis of synthesized peptides in ATCC reference strains and susceptible, resistant, and multidrug-resistant (MDR) clinical isolates was performed. The clinical isolates were obtained from the National Cancer Institute collection and were previously identified and antibiogrammed using the VITEK system. Additionally, the strains were characterized by MALDI-TOF. The strains were re-primed onto trypticase soy agar and subsequently preserved in Brain–Heart Infusion (BHI) broth containing 20% glycerol. For the MIC and MBC assays, the strains were reactivated and cultured in BHI until they reached their exponential growth phase.\n(§3) The minimum inhibitory concentration (MIC) of the peptides was determined by the broth microdilution technique, according to the Clinical and Laboratory Standards Institute (CLSI) guidelines, as previously described. Briefly, bacterial strains were incubated in BHI broth at 37 °C until they reached the exponential growth phase, and inocula were adjusted to 5 × 10^6 CFU/mL using calibration curves. Serial dilutions of the peptides to be evaluated in 96-well plates were made in 90 µL of Mueller Hinton broth at concentrations ranging from 200 to 6.25 µg/mL, and 10 µL of the inoculum adjusted to 5 × 10^6 CFU/mL was added. Finally, the plates were incubated at 37 °C for 24 h, and the absorbance at 620 nm was read. As a negative control, CMH, distilled water, and 10 µL of inoculum were used; for the positive control, vancomycin was used for Gram-positive strains and ciprofloxacin for Gram-negative strains at the MICs dictated by the CLSI; as a technical control, CMH with peptone water was used, and for the growth control, CMH was used with 10 µL of inoculum.\n(§4) To determine the minimum bactericidal concentration (MBC), the 96-well plates where the MIC was determined were used as a starting point. From these, an aliquot of the controls and those wells where no apparent bacterial growth was observed were spotted onto trypticase soy agar plates. The plates were incubated at 37 °C for 24 h, and the reading was taken, identifying the lowest concentration of the peptide where there was no bacterial growth as the MBC."}, "[2]": {"system": "S. aureus clinical isolate 124653", "settings": "S. aureus clinical isolate 124653", "method": "as §1, §2, §3, §4"}, "[3]": {"system": "E. coli clinical isolate 301755 (MDR)", "settings": "E. coli clinical isolate 301755", "method": "as §1, §2, §3, §4"}, "[4]": {"system": "E. coli clinical isolate 129797 (resistant)", "settings": "E. coli clinical isolate 129797", "method": "as §1, §2, §3, §4"}, "[5]": {"system": "E. coli clinical isolate 1004 (susceptible)", "settings": "E. coli clinical isolate 1004", "method": "as §1, §2, §3, §4"}, "[6]": {"system": "clinical isolates of E. coli", "settings": "stated for the E. coli clinical isolates together", "method": "as §1, §2, §3, §4"}, "[7]": {"system": "E. faecalis clinical isolate 82", "settings": "E. faecalis clinical isolate 82", "method": "as §1, §2, §3, §4"}, "[8]": {"system": "E. faecalis clinical isolate 179", "settings": "E. faecalis clinical isolate 179", "method": "as §1, §2, §3, §4"}, "[9]": {"system": "S. aureus clinical isolate 109095", "settings": "S. aureus clinical isolate 109095", "method": "as §1, §2, §3, §4"}, "[10]": {"system": "clinical isolates of S. aureus", "settings": "stated for the S. aureus clinical isolates together", "method": "as §1, with “For E. faecalis three isolates were selected: strains 213 (sensitive to all the antibiotics tested), strain 82 (resistant to streptomycin), and strain 179 (resistant to gentamicin). These clinical isolates were selected to assess the antimicrobial activity of the peptide RWQWRWQWR and its analogues conjugated to fluorescent molecules in strains against strains with susceptibility profiles.” left out\nThe minimum inhibitory concentration (MIC) of the peptides was determined by the broth microdilution technique, according to the Clinical and Laboratory Standards Institute (CLSI) guidelines, as previously described. […] Serial dilutions of the peptides to be evaluated in 96-well plates were made in 90 µL of Mueller Hinton broth at concentrations ranging from 200 to 6.25 µg/mL, and 10 µL of the inoculum adjusted to 5 × 10^6 CFU/mL was added. Finally, the plates were incubated at 37 °C for 24 h, and the absorbance at 620 nm was read. […]"}, "[11]": {"experiment": "MTT cytotoxicity assay in HeLa cells", "settings": "HeLa cells, MTT; read-out: Cytotoxic Activity (IC50)", "method": "(§5) MTT assays were conducted in HeLa cells to evaluate the effect of fluorescent probe incorporation on the in vitro cytotoxic activity of the parent non-conjugated peptides. The cytotoxic effect of peptides 1, Abz-1 RhB-1, 2, and RhB-2 in HeLa cells was peptide concentration-dependent, with the highest anticancer activity observed at 200 µg/mL. Incorporation of 2-Abz and RhB at the N-terminal end reduced cytotoxic activity, while the binding of 2-Abz at the C-terminal end or FAM at the N-terminal end drastically diminished anticancer activity (Table 4)."}, "HeLa cells": {"system": "HeLa cells", "experiment": "MTT cytotoxicity assay in HeLa cells", "settings": "HeLa cells, 200 µg/mL; listed as palindromic peptide", "method": "as §5"}, "E. coli ATCC 25922": {"system": "E. coli ATCC 25922", "settings": "E. coli ATCC 25922", "method": "as §3, §4"}, "P. aeruginosa ATCC 27853": {"system": "P. aeruginosa ATCC 27853", "settings": "P. aeruginosa ATCC 27853", "method": "as §3, §4"}, "S. aureus ATCC 25923": {"system": "S. aureus ATCC 25923", "settings": "S. aureus ATCC 25923", "method": "as §3, §4"}, "E. faecalis ATCC 29212": {"system": "E. faecalis ATCC 29212", "settings": "E. faecalis ATCC 29212", "method": "as §3, §4"}, "[12]": {"system": "K. pneumoniae ATCC 700603", "settings": "K. pneumoniae ATCC 700603", "method": "as §3, §4"}, "[13]": {"system": "S. aureus clinical isolate 11719", "settings": "S. aureus clinical isolate 11719"}}, "note": "Where “and” joins values, the source holds several entries; their conditions need not be identical. Equal entries are not always repeated. Where two headings read alike, the source gives them in different places. No end group written: not given here."}
{"substance": "RWQWRWQWR-NH2 [peptide 1, RWQWRWQWR]", "values": [{"measurement": "hemolysis", "setting": "Hemolysis assay; at 200 µg/mL (highest tested concentration), 2 h, 37 °C, read-out: hemolysis", "value": 4.5, "unit": "%"}, {"measurement": "hemolysis", "setting": "Hemolysis assay; at the lowest MIC concentration, read-out: Percentage of hemolysis", "value": 1.1, "unit": "%"}, {"measurement": "selectivity ratio", "setting": "Hemolysis assay; peptide concentration at 10% hemolysis / IC50 in HeLa cells, read-out: Selectivity index", "value": "> 3"}, {"measurement": "Minimal bactericidal concentration (MBC)", "setting": "[1]", "value": 135, "unit": "µM"}, {"measurement": "Minimal inhibitory concentration (MIC)", "setting": "[1]", "value": 135, "unit": "µM"}, {"measurement": "Minimal bactericidal concentration (MBC)", "setting": "[2]", "value": "> 135", "unit": "µM"}, {"measurement": "Minimal inhibitory concentration (MIC)", "setting": "[2]", "value": 135, "unit": "µM"}, {"measurement": "Minimal bactericidal concentration (MBC)", "setting": "[3]", "value": 67, "unit": "µM"}, {"measurement": "Minimal inhibitory concentration (MIC)", "setting": "[3]", "value": 34, "unit": "µM"}, {"measurement": "Minimal inhibitory concentration (MIC)", "setting": "[4]", "value": "34/34 µM"}, {"measurement": "Minimal bactericidal concentration (MBC)", "setting": "[5]", "value": "> 135", "unit": "µM"}, {"measurement": "Minimal inhibitory concentration (MIC)", "setting": "[5]", "value": 17, "unit": "µM"}, {"measurement": "MIC", "setting": "[6]", "value": "17 to 34", "unit": "µM"}, {"measurement": "Minimal bactericidal concentration (MBC)", "setting": "[7]", "value": "67/67 µM"}, {"measurement": "Minimal bactericidal concentration (MBC)", "setting": "[8]", "value": 135, "unit": "µM"}, {"measurement": "Minimal inhibitory concentration (MIC)", "setting": "[8]", "value": 135, "unit": "µM"}, {"measurement": "Minimal bactericidal concentration (MBC)", "setting": "[9]", "value": 135, "unit": "µM"}, {"measurement": "Minimal inhibitory concentration (MIC)", "setting": "[9]", "value": 135, "unit": "µM"}, {"measurement": "MIC", "setting": "[10]", "value": 135, "unit": "µM"}, {"measurement": "IC50", "setting": "[11]", "value": "77 µg/mL and 52 µM"}, {"measurement": "cell viability", "setting": "HeLa cells", "value": "about 20%"}, {"measurement": "Minimal bactericidal concentration (MBC)", "setting": "E. coli ATCC 25922", "value": 34, "unit": "µM"}, {"measurement": "Minimal inhibitory concentration (MIC)", "setting": "E. coli ATCC 25922", "value": 17, "unit": "µM"}, {"measurement": "Minimal bactericidal concentration (MBC)", "setting": "P. aeruginosa ATCC 27853", "value": "> 135", "unit": "µM"}, {"measurement": "Minimal inhibitory concentration (MIC)", "setting": "P. aeruginosa ATCC 27853", "value": 67, "unit": "µM"}, {"measurement": "Minimal bactericidal concentration (MBC)", "setting": "S. aureus ATCC 25923", "value": 34, "unit": "µM"}, {"measurement": "Minimal inhibitory concentration (MIC)", "setting": "S. aureus ATCC 25923", "value": 17, "unit": "µM"}, {"measurement": "Minimal bactericidal concentration (MBC)", "setting": "E. faecalis ATCC 29212", "value": "> 135", "unit": "µM"}, {"measurement": "Minimal inhibitory concentration (MIC)", "setting": "E. faecalis ATCC 29212", "value": 135, "unit": "µM"}, {"measurement": "Minimal bactericidal concentration (MBC)", "setting": "[12]", "value": 135, "unit": "µM"}, {"measurement": "Minimal inhibitory concentration (MIC)", "setting": "[12]", "value": 67, "unit": "µM"}, {"measurement": "Minimal bactericidal concentration (MBC)", "setting": "[13]", "value": "> 135", "unit": "µM"}, {"measurement": "Minimal inhibitory concentration (MIC)", "setting": "[13]", "value": 135, "unit": "µM"}]}
